In the supplement of paper PMC4862054:

What was measured:
Conditions in all cases: incubation time: 72 h
CAL-120 [1] = assay: drug sensitivity score (DSS), CellTiter-Blue viability (DSS (AUC-based score)); higher = stronger viability inhibition; extreme values may be limits of the assay
Protocol: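 DSRT with the CellTiter-Blue (resazurin reduction) viability readout, fluorescence 560/590 nm, 72 h incubation. Plates were normalised to DMSO and benzethonium chloride controls. DSS is computed from the area under the fitted dose-response curve (5 or 9 concentrations).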

CAL-85-1 [2] = assay: normalised viability (% of control), CellTiter-Blue; higher = more viable cells (about 100 = DMSO control)
Outline: (§1)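 384-well plates were pre-loaded with compound in 5 µl medium before 20 µl of breast cancer cell suspension was seeded. Following 72 h incubation, 2.5 µl CellTiter-Blue reagent was added for 2 h at 37 °C. Fluorescence was read at 560/590 nm and plates were normalised to vehicle (100) and a positive kill control (0), checked by Z'-factor. Normalised viability is reported at a single listed concentration of the series.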

Hs578T [3] = assay: as above
Outline: as §1

MDA-MB-468 [4] = assay: as above
Outline: as §1

MDA-MB-453 [5] = assay: as above
Outline: as §1

MDA-MB-231 [6] = assay: as above
Outline: as §1

BT-474 [7] = assay: as above
Outline: as §1

BT-549 = assay: normalised response (% of control), CellTox Green; higher = less cell death (100 = DMSO, 0 = benzethonium chloride kill control)
Outline: (§2)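 Breast cancer cell lines, seeded at 20 µl suspension per well, were incubated for 72 h in 384-well plates containing compound at 5 concentrations. These concentrations rose in 10-fold steps over a 10,000-fold range set for each compound. CellTox Green fluorescence (485/520 nm) was read, then CellTiter-Glo luminescence after 10 min at room temperature, and each plate was normalised to 0.1 % DMSO (100) and a positive kill control (0). Values are normalised signals, each at one concentration.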

HCC1599 = assay: as above
Outline: as §2

HDQ-P1 = assay: as above
Outline: as §2

MFM-223 = assay: as above
Outline: as §2

CAL-85-1 [8] = assay: as above
Outline: as §2

CAL-120 [9] = assay: as above
Outline: as §2

MCF-10A = assay: as above
Outline: as §2

MDA-MB-436 = assay: as above
Outline: as §2

Hs578T [10] = assay: as above
Outline: as §2

HCC1937 = assay: as above
Outline: as §2

MDA-MB-468 [11] = assay: as above
Outline: as §2

CAL-148 = assay: as above
Outline: as §2

MDA-MB-453 [12] = assay: as above
Outline: as §2

MDA-MB-231 [13] = assay: as above
Outline: as §2

BT-474 [14] = assay: as above
Outline: as §2

DU-4475 = assay: as above
Outline: as §2

CAL-51 = assay: as above
Outline: as §2

HCC1143 = assay: as above
Outline: as §2

Row | SMILES | normalised response (BT-549) [%] | normalised response (HCC1599) [%] | normalised response (HDQ-P1) [%] | normalised response (MFM-223) [%] | normalised response (CAL-85-1 [8]) [%] | normalised response (CAL-120 [9]) [%] | normalised response (MCF-10A) [%] | normalised response (MDA-MB-436) [%] | normalised response (Hs578T [10]) [%] | normalised response (HCC1937) [%] | normalised response (MDA-MB-468 [11]) [%] | normalised response (CAL-148) [%] | normalised response (MDA-MB-453 [12]) [%] | normalised response (MDA-MB-231 [13]) [%] | normalised response (BT-474 [14]) [%] | normalised response (DU-4475) [%] | normalised response (CAL-51) [%] | normalised response (HCC1143) [%] | further results
1 | COc1ncc(-c2ccc3nccc(-c4ccnnc4)c3c2)cc1NS(=O)(=O)c1ccc(F)cc1F |  |  |  |  |  |  |  |  |  |  |  |  |  |  |  |  |  |  | drug sensitivity score (CAL-120 [1]): 16.3; normalised viability (CAL-85-1 [2]; 0.3 nM): 89.5%; normalised viability (CAL-85-1 [2]; 3 nM): 75.9%; normalised viability (CAL-85-1 [2]; 10 nM): 73.2%; normalised viability (Hs578T [3]; 1 nM): 107%; normalised viability (Hs578T [3]; 100 nM): 33.5%; normalised viability (Hs578T [3]; 1000 nM): 9.34%; normalised viability (MDA-MB-468 [4]; 1 nM): 92.9%; normalised viability (MDA-MB-468 [4]; 100 nM): 34.3%; normalised viability (MDA-MB-468 [4]; 1000 nM): 7.54%; normalised viability (MDA-MB-453 [5]; 0.3 nM): 103%; normalised viability (MDA-MB-453 [5]; 3 nM): 67.2%; normalised viability (MDA-MB-453 [5]; 10 nM): 36.7%; normalised viability (MDA-MB-231 [6]; 1 nM): 96.2%; normalised viability (MDA-MB-231 [6]; 100 nM): 41.2%; normalised viability (MDA-MB-231 [6]; 1000 nM): 23.7%; normalised viability (BT-474 [7]; 1 nM): 110%; normalised viability (BT-474 [7]; 100 nM): 19.2%; normalised viability (BT-474 [7]; 1000 nM): 6.63%
2 | C[C@@]1(C(=O)Nc2ccc(F)nc2)CCCN1c1nc(Nc2cc(C3CC3)n[nH]2)c2cccn2n1 |  |  |  |  |  |  |  |  |  |  |  |  |  |  |  |  |  |  | drug sensitivity score (CAL-120 [1]): 8.33; normalised viability (CAL-85-1 [2]; 3 nM): 92%; normalised viability (CAL-85-1 [2]; 30 nM): 75%; normalised viability (CAL-85-1 [2]; 100 nM): 87.9%; normalised viability (Hs578T [3]; 10 nM): 114%; normalised viability (Hs578T [3]; 1000 nM): 75.8%; normalised viability (Hs578T [3]; 10000 nM): 38.1%; normalised viability (MDA-MB-468 [4]; 10 nM): 115%; normalised viability (MDA-MB-468 [4]; 1000 nM): 61%; normalised viability (MDA-MB-468 [4]; 10000 nM): 40.7%; normalised viability (MDA-MB-453 [5]; 3 nM): 100%; normalised viability (MDA-MB-453 [5]; 30 nM): 84%; normalised viability (MDA-MB-453 [5]; 100 nM): 105%; normalised viability (MDA-MB-231 [6]; 10 nM): 90.6%; normalised viability (MDA-MB-231 [6]; 1000 nM): 46%; normalised viability (MDA-MB-231 [6]; 10000 nM): 31.4%; normalised viability (BT-474 [7]; 10 nM): 109%; normalised viability (BT-474 [7]; 1000 nM): 87.6%; normalised viability (BT-474 [7]; 10000 nM): 82%
3 | COc1cccc2c1C(=O)c1c(O)c3c(c(O)c1C2=O)C[C@@](O)(C(C)=O)C[C@@H]3O[C@H]1C[C@H](N)[C@H](O)[C@H](C)O1 [Daunorubicin] (1000 nM) | 145 | 138 | 101 | 101 | 76.2 | 99.2 | 106 | 47.9 | 144 | 137 | 322 | 75 | 120 | 127 | 101 | 104 | 42.6 | 100 | 
4 | CN1CCN(c2ccc3nc(-c4c(N)c5c(F)cccc5[nH]c4=O)[nH]c3c2)CC1 [Dovitinib] (1000 nM) | 131 | 106 | 106 | 102 | 97.8 | 94 | 104 | 95.8 | 80.1 | 128 | 167 | 103 | 101 | 88.5 | 97.7 | 98.6 | 105 | 104 | 
5 | O=c1[nH]cc(F)c(=O)[nH]1 [Fluorouracil] (1000 nM) | 109 | 101 | 107 | 102 | 101 | 105 | 111 | 101 | 60.9 | 94.5 | 96.7 | 98.5 | 87.5 | 106 | 101 | 105 | 114 | 110 | 
6 | C[C@@H]1C=C2C(=O)O[C@@H]3CC[C@H](C1)[C@]23O [Galiellalactone] (50000 nM) | 98.7 | 114 | 92.3 | 106 | 46.6 | 102 | 102 | 105 | 122 | 81.2 | 135 | 103 | 107 | 121 | 102 | 108 | 96.6 | 112 | 
7 | COC1=C2C[C@@H](C)C[C@H](OC)[C@H](O)[C@@H](C)/C=C(\C)[C@H](OC(N)=O)[C@@H](OC)/C=C\C=C(/C)C(=O)NC(=CC1=O)C2=O [Geldanamycin] (10000 nM) | 99 | 99.2 | 65.2 | 44.1 | 3.38 | 75.1 | -24.5 | 80.8 | 98 | -41.7 | -27.4 | 54.8 | 82 | 6.32 | 35.9 | 68.2 | 39.3 | 99.5 | 
8 | Cn1cnc2c(F)c(Nc3ccc(Br)cc3F)c(C(=O)NOCCO)cc21 [MEK-162] (100 nM) | 111 | 90.6 | 87.6 | 91.5 | 98.2 | 99.8 | 104 | 105 | 76.4 | 60.2 | 139 | 98.4 | 106 | 50.2 | 101 | 87.3 | 103 | 115 | 
9 | CCOc1cc2ncc(C#N)c(Nc3ccc(OCc4ccccn4)c(Cl)c3)c2cc1NC(=O)/C=C/CN(C)C [Neratinib] (100 nM) | 105 | 107 | 99.5 | 103 | 93.7 | 106 | 114 | 97.8 | 90.3 | 96 | 75.7 | 100 | 110 | 109 | 78.8 | 106 | 115 | 115 | 
10 | CCOc1cc2ncc(C#N)c(Nc3ccc(OCc4ccccn4)c(Cl)c3)c2cc1NC(=O)/C=C/CN(C)C [Neratinib] (1000 nM) | 101 | 106 | 55.7 | 100 | 54 | 71.7 | 115 | 104 | 120 | 95.7 | -68.6 | 77.3 | 99.9 | 6.81 | 77.1 | 94.7 | 95.8 | 105 | 
11 | COC1=CC(c2cc3ccccc3[nH]2)=N/C1=C\c1[nH]c(C)cc1C [Obatoclax] (10000 nM) | 78.2 | 99.9 | 102 | 96.7 | 117 | 99.2 | 74.2 | 102 | 129 | 95.4 | 82.9 | 77.3 | 96.2 | 0.38 | 94.9 | 101 | -16.5 | 91.9 | 
12 | COC(=O)C[C@](O)(CCCC(C)(C)O)C(=O)O[C@@H]1C(OC)=C[C@]23CCCN2CCc2cc4c(cc2[C@H]13)OCO4 [Omacetaxine] |  |  |  |  |  |  |  |  |  |  |  |  |  |  |  |  |  |  | drug sensitivity score (CAL-120 [1]): 28.6
13 | CC(=O)O[C@H]1C(=O)[C@@]2(C)[C@H]([C@H](OC(=O)c3ccccc3)[C@]3(O)C[C@H](OC(=O)[C@H](O)[C@@H](NC(=O)c4ccccc4)c4ccccc4)C(C)=C1C3(C)C)[C@]1(OC(C)=O)CO[C@@H]1C[C@@H]2O [Paclitaxel] (100 nM) | 65.9 | 82.7 | 77.4 | 51.4 | 21.5 | 81.6 | -6.43 | 62.8 | 48.5 | 84.6 | 4.61 | 66.4 | 98.7 | -43 | 49.4 | 90.4 | 25.6 | 99.6 | 
14 | CC(=O)O[C@H]1C(=O)[C@@]2(C)[C@H]([C@H](OC(=O)c3ccccc3)[C@]3(O)C[C@H](OC(=O)[C@H](O)[C@@H](NC(=O)c4ccccc4)c4ccccc4)C(C)=C1C3(C)C)[C@]1(OC(C)=O)CO[C@@H]1C[C@@H]2O [Paclitaxel] (1000 nM) | 56.5 | 86.6 | 81.5 | 58.8 | 41.7 | 82.8 | 1.34 | 49.4 | 18.5 | 71 | -32.9 | 86.3 | 92.1 | -30 | 43.1 | 95.4 | 38.7 | 87.3 | 
15 | Cn1c(=O)c(F)c(Nc2ccc(I)cc2F)c2c(=O)n(C[C@@H](O)CO)cnc21 [TAK-733] (1000 nM) | 119 | 113 | 94.6 | 104 | 41 | 87.2 | 110 | 97.9 | 38 | 102 | 87.6 | 98.7 | 109 | 64.2 | 102 | 70.7 | 105 | 128 | 
16 | CCS(=O)(=O)c1cccc(-c2cc(C(=O)NC3CCN(C)CC3)c(C)c3[nH]c4ncc(C)cc4c23)c1 [TAK-901] (1000 nM) | 41 | 97.1 | 55 | 85 | 58.9 | 84.2 | 90 | 69.2 | 106 | 95.2 | 74.3 | 84.6 | 105 | 57.7 | 91.5 | 97 | 36.5 | 87.8 | 
